# Assay results as given in US20160166572A1, “BENEFICIAL EFFECTS OF Lp-PLA2 INHIBITORS IN TREATMENT OF DIABETIC RETINOPATHY AND AGE-RELATED MACULAR DEGENERATION” (Rowan University, priority 2014, published 2016).
# How the values were obtained:
# [1] = tested on: claudin5; test: Claudin5 protein expression in BVECs of cerebral cortex (IHC, MATLAB), DMHC pigs; format: in vivo, pig; details: Darapladib 10 mg/kg/d orally, 24 weeks
# Method: Briefly, after induction of diabetes by a single injection of Streptozotocin, animals were fed a high cholesterol diet. After a month of DMHC induction and acclimation, animals were randomly segregated to untreated DMHC and Darapladib-treated DMHC groups. Darapladib-treated pigs received 10 mg/kg/d of Darapladib orally. Three of the pigs were spared from DMHC induction and served as age-matched, non-DMHC normal controls. Twenty four weeks after acclimation, animals were euthanized and their brains and eyes were immediately removed. Brains were divided anteroposteriorly into anterior, middle and posterior regions. For each of these brain regions, 2-3 tissue blocks were generated for routine tissue fixation (10% formalin) or freezing and histological processing. The anterior cortical region comprised of anterior 2⁄3 of frontal lobe and anterior 1⁄3 of temporal lobe. The middle cortical region contained mid 1⁄3 of temporal lobe and anterior 1⁄2 of the parietal lobe. The posterior cortex included the posterior 1⁄2 of the parietal lobe, posterior 1⁄3 of the temporal lobe and the occipital lobe. Eyes were dissected longitudinally to sever the retina at the optic nerve. The sections were fixed in 10% formalin and embedded as flattened disc in paraffin. The tissue samples were processed using routine histology techniques. Standard Hematoxylin & Eosin (H&E) staining (FIG. 1) was carried out in retinal sections. Localization of claudin5, occludin and IgG in the cerebral cortex and retina was carried out using immunohistochemistry (IHC) as described previously. Briefly, tissue sections were deparaffinized in xylene and rehydrated in decreasing concentrations of ethanol. The antigenicity of these tissues was enhanced by microwaving in citrate buffer. Sections were treated with 3% H2O2 for 10 minutes to quench endogenous peroxidase activity. Tissues were subsequently treated with their appropriate blocking serum for 30 minutes at room temperature and then probed with anti-claudin5 (Invitrogen, Cat #35-2500, dilution 1:150) or anti-occludin (Invitrogen, Cat #71-1500, dilution 1:800) antibodies for 1 hour at room temperature. Extravasated IgG was detected using biotinylated anti-swine IgG antibody (Vector laboratories, Inc., Catalogue # BA-9020; dilution 1:100). The use of occludin antibody required pre-treatment with a protease (Sigma, Catalogue P-5147; 1.5 mg/ml) for 10 minutes at 37° C. At the end of primary antibody step, all tissue sections were thoroughly rinsed in PBS and then probed with biotin-labeled secondary antibodies [anti-mouse IgG (Vector laboratories, Catalogue # PK-6102; Dilution 1:100) for claudin5 and anti-rabbit IgG (Vector laboratories, Inc., Catalogue # PK-6101; Dilution 1:100) for occludin] for 30 minutes at room temperature. Sections were then rinsed in PBS, treated with avidin-peroxidase complex (Vectastain ABC Elite kit, Vector Laboratories, Inc., Catalogue PK-6100), washed with PBS and visualized with 3-3-diaminobenzidine-4-HCL (DAB)/H2O2 (Imm-PACT-DAB) (Dako, Code K3468). […] Slides were examined and photographed with a Nikon FXA microscope, and digital images were recorded using a Nikon DXM1200F digital camera and analyzed using MATLAB (MathWorks, Mass., USA) and NIS-elements software (Nikon, Melville, N.Y.). […] Claudin5 and occludin protein expression in pig cerebral cortex was evaluated semi-quantitatively using IHC by taking images at five random locations as described previously. Images were analyzed using MATLAB (MathWorks, Mass., USA). […]
# [2] = tested on: occludin; test: Occludin gene expression in cerebral cortex (RT-PCR, beta-actin reference), DMHC pigs; format: in vivo, pig; details: Darapladib 10 mg/kg/d orally, 24 weeks, rank among treatment groups, FIG. 8B
# Method: Briefly, after induction of diabetes by a single injection of Streptozotocin, animals were fed a high cholesterol diet. After a month of DMHC induction and acclimation, animals were randomly segregated to untreated DMHC and Darapladib-treated DMHC groups. Darapladib-treated pigs received 10 mg/kg/d of Darapladib orally. Three of the pigs were spared from DMHC induction and served as age-matched, non-DMHC normal controls. Twenty four weeks after acclimation, animals were euthanized and their brains and eyes were immediately removed. Brains were divided anteroposteriorly into anterior, middle and posterior regions. […]
# Relative quantification of claudin5 and occludin gene expression was carried out using the reporter dye SYBR green and Applied Biosystems 7500 real time polymerase chain reaction (RT-PCR) system. […] Relative quantification of the claudin5 and occludin gene expression was conducted using beta actin (β-actin), a house keeping gene, as a standard. The amplification profiles of all samples were analyzed using Applied Biosystems software. […]
# Changes in claudin 5 and occludin gene expression in response to DMHC and Darapladib treatment were assessed in the middle brain region only of the pig cerebral cortex by real-time polymerase chain reaction (RT-PCR) using beta-actin as a reference (FIG. 8).
compound,measurement,setting,value
CCN(CC)CCN(Cc1ccc(-c2ccc(C(F)(F)F)cc2)cc1)C(=O)Cn1c(SCc2ccc(F)cc2)nc(=O)c2c1CCC2 [Darapladib],"claudin5 protein expression, anterior cortex, versus DMHC group",[1]; FIG. 7A,"reduction in claudin5 expression compared to the DMHC group, but this difference did not reach statistical significance"
same,"claudin5 protein expression, anterior cortex, versus controls",[1]; FIG. 7A,significantly higher than in controls
same,"claudin5 protein expression, middle cortex, versus DMHC only",[1]; FIG. 7B,approached statistical significance
same,"claudin5 protein expression, middle cortex, versus controls",[1]; FIG. 7B,reduced expression of claudin5 to levels not significantly different from controls
same,"claudin5 protein expression, posterior cortex","[1]; rank among treatment groups, FIG. 7C",highest expression of claudin5
same,"occludin gene expression, middle brain region of cerebral cortex",[2],highest claudin5 and occludin levels
